Source: patent publication US7208528B1, “Polyamine analogues as therapeutic and diagnostic agents” (MediQuest Therapeutics, Inc., priority 1997, dated 2007)

Assays:
MDA-MB-231 cells = test: Growth assay of MDA-MB-231 cells with ODC inhibitor (DFMO) and 1 μM spermidine; conditions: for R, ratio of IC50 in the absence of DFMO over IC50 in the presence of DFMO: MDA growth assay; for IC50: read-out: IC50 for growth in combination with ODC inhibitor (DFMO), 230 μM DFMO; for IC50 / IC50 with DFMO, result in words: 1 μM spermidine; for concentration added to culture media at which growth inhibition due to 1202 and DFMO begins to reverse: cells treated with 1202 and DFMO
Description: The estrogen insensitive human breast carcinoma MDA-MB-231 cell line as the primary cell line in the screen. […] In order to optimize the screen for polyamine transport inhibition, 1.0 μM spermidine was added to media to reverse the effects of ODC inhibitors. The assay was also performed over seven days because this allows for the greatest dynamic range in cell growth due to the mechanism of ODC inhibitors. Cells need to divide several times before the intracellular level of polyamines begin to decrease to growth inhibitory levels.
Compounds were tested for their ability to inhibit cell growth in the presence of 1 μM spermidine and 230 μM ODC inhibitor for the MDA-MB-231 cells or 1 mM ODC inhibitor for the PC3 cells.
In our six day growth assays, 1202 was tested at increasing concentrations with the optimal concentration of DFMO.

[1] = system: polyamine transporter (PATr); test: Polyamine transport (PAT) inhibition assay, 3H-spermidine uptake into MDA-MB-231 cells; type: cell-based, human; conditions: for Ki: MDA-MB-231 cells
Description: The radiometric assay uses radiolabeled polyamines such as putrescine, spermidine or spermine, but, due to the low signal, large numbers of adherent or non-adherent cells are required. Additional care is required with spermine due to its nonspecific adsorption to cells and plastics. Cells are mixed with the test compounds and the radiolabeled polyamine to initiate the assay. The cells are incubated for 1–60 minutes, depending on cell type. The assay is terminated by removal of the medium and cooling the plates to 4° C. The cells are then washed with cold medium three times, dissolved in 0.1% sodium dodecyl sulfate and the radioactivity in solution is then determined by scintillation counting. This assay is difficult to scale up to a high throughput procedure due to the low signal from the radiolabel and the handling requirements inherent in procedures with radioactivity.
Therefore, the growth assay and a kinetic transport assay have been used to validate transport inhibition.
The polyamine analogues and derivatives of the invention may be evaluated for their ability to inhibit the uptake of spermidine into MDA cells in culture. Joro spider toxin JSTx-3 is available from Calbiochem; 1-Naphthylacetylspermine is available from RBI. Deoxyspergualin was a generous gift from Paul Gladstone.
300 nM 1202 was the maximum concentration tested in initial rate transport assays.

[2] = system: MDA breast carcinoma cells; test: Rescue from DFMO-induced growth inhibition of MDA cells without added polyamines, six day growth assay; type: cell-based, human; conditions: absence of polyamines
Description: An additional series of spermine amides were evaluated to extend the structure-activity relationship around this polyamine transport target.
Growth assays were done over a six day period in order to allow for polyamine depletion within cells. When synthesis of polyamines is inhibited, cells compensate by increasing transport of extracellular polyamines into the cell. Over the time course of the assay, polyamines in the culture media may be depleted resulting in growth inhibition.

cancer cells = conditions: cited from earlier work

| Compound | IC50 (MDA-MB-231 cells) [µM] | Ki [1] [nM] | further results |
| --- | --- | --- | --- |
| NCCCNCCCCNCCCNC(=O)CCCCCNS(=O)(=O)c1ccc(CNC(=O)c2ccc(Cl)cc2)s1 [Compound 5, N^1-[(N^6-5-(4-chlorobenzamidomethyl)-thiophene-2-sulfonyl)-6-aminocaproyl]spermine] | – | – | R, ratio of IC50 in the absence of DFMO over IC50 in the presence of DFMO (MDA-MB-231 cells): 210 |
| NCCCNCCCCNCCCNC(=O)CCCCCNS(=O)(=O)c1ccc2oc3ccccc3c2c1 [Compound 6] | – | – | R, ratio of IC50 in the absence of DFMO over IC50 in the presence of DFMO (MDA-MB-231 cells): 220 |
| NCCCNCCCCNCCCNC(=O)Cc1cccc2ccccc12 [Compound 1022, 1-Naphthylacetylspermine, reference compound] | 8.3 | 230 | – |
| N=C(N)NCCCCCCC(=O)NC(O)C(=O)NCCCCNCCCN (stereo not drawn) [Compound 1085, deoxyspergualin, reference compound] | – | 81 | – |
| NCCCCCC(=O)NCCCNCCCCNCCCN [Compound 1094, N^1-[6-aminocaproylspermine]] | – | 69 | rescue of cells from growth inhibitory effects of DFMO [2]: able to rescue |
| NCCCNCCCCNCCCNC(=O)C(N)Cc1c[nH]c2ccccc12 [Compound 1095, N^1-Spermine-L-tryptophanyl amide] | 15 | 162 | – |
| CC(=O)NCCCNCCCCNCCCN [Compound 1110, N^1-acetylspermine, reference compound] | – | 162 | greater affinity for the transport system than spermidine ([1]; Ki versus Km of spermidine): 3 fold |
| NCCCNCCCCNCCC(=O)NCCCCCNC(=O)[C@H](CC(N)=O)NC(=O)Cc1ccc(O)cc1O [Compound 1111, reference compound] | – | 190 | – |
| NCCCNCCCCNCCCNC(=O)CN [Compound 1125, N^1-Spermine-glycinyl amide] | – | 87 | IC50 with DFMO, result in words (MDA-MB-231 cells): failed to give effective IC50 values; rescue of cells from growth inhibitory effects of DFMO [2]: able to rescue |
| NCCCNCCCCNCCCNC(=O)C(N)CC(N)=O [Compound 1131, N^1-Spermine-L-asparaginyl amide] | – | 32 | – |
| NCCCNCCCCNCCCNC(=O)C(N)CCC(N)=O [Compound 1154, N^1-Spermine-L-glutaminyl amide] | – | 47 | IC50 with DFMO, result in words (MDA-MB-231 cells): failed to give effective IC50 values |
| CC(C)C(N)C(=O)NCCCNCCCCNCCCN [Compound 1157, N^1-Spermine-L-valinyl amide] | 16 | 84 | rescue of cells from growth inhibitory effects of DFMO [2]: not able to rescue |
| NCCCNCCCCNCCCNC(=O)[C@@H]1CCCN1 [Compound 1159, N^1-Spermine-L-prolinyl amide] | 5 | 38 | rescue of cells from growth inhibitory effects of DFMO [2]: able to rescue |
| CC(C)(C)OC(=O)NCCCNCCCCNCCCN [Compound 1163, N^1-boc-spermine] | – | 83 | – |
| CSCCC(N)C(=O)NCCCNCCCCNCCCN [Compound 1164, N^1-Spermine-L-methionyl amide] | – | 34 | IC50 with DFMO, result in words (MDA-MB-231 cells): failed to give effective IC50 values |
| NCCCNCCCCNCCCNC(=O)C(N)Cc1ccc(O)cc1 [Compound 1173, N^1-Spermine-L-tyrosinyl amide] | – | 77 | – |
| NCCCNCCCCNCCCNC(=O)CCN [Compound 1177, N^1-Spermine-β-alanyl amide] | – | 71 | IC50 with DFMO, result in words (MDA-MB-231 cells): failed to give effective IC50 values |

| Compound | IC50 (MDA-MB-231 cells) [µM] | Ki [1] [nM] | further results |
| --- | --- | --- | --- |
| CC(N)C(=O)NCCCNCCCCNCCCN [Compound 1178, N^1-Spermine-L-alanyl amide] | – | 244 | – |
| NCCCNCCCCNCCCNC(=O)C(N)CO [Compound 1187, N^1-Spermine-L-serinyl amide] | 26 | 45 | – |
| CC(C)(C)C(N)C(=O)NCCCNCCCCNCCCN [Compound 1194, N^1-Spermine-L-^tbutylglycinyl amide] | 11 | 212 | – |
| CC(C)C(N)C(=O)NCCCNCCCCNCCCN [Compound 1196, N^1-Spermine-D-valinyl amide] | 9 | 48 | – |
| CC(O)C(N)C(=O)NCCCNCCCCNCCCN [Compound 1207, N^1-Spermine-L-threoninyl amide] | 6 | 130 | – |
| NCCCNCCCCNCCCNC(=O)CC12CC3CC(CC(C3)C1)C2 [Compound 1212, N^1-Spermine 2-(1-adamantyl)acetamide] | 9 | – | – |
| CC(C)(N)C(=O)NCCCNCCCCNCCCN [Compound 1220, N^1-Spermine-α-aminoisobutyryl amide] | 8 | 160 | – |
| NCCCNCCCCNCCCNC(=O)C(N)CCCN [Compound 1224, N^1-Spermine-L-ornithyl amide] | 3 | 47 | rescue of cells from growth inhibitory effects of DFMO [2]: not able to rescue |
| NCCCNCCCCNCCCNC(=O)C(N)CC1CCCCC1 [Compound 1227, N^1-Spermine-L-cyclohexanealanyl amide] | – | 241 | – |
| CCC(C)C(N)C(=O)NCCCNCCCCNCCCN [Compound 1228, N^1-Spermine-L-isoleucinyl amide] | 9 | 124 | – |
| CC(C)CC(N)C(=O)NCCCNCCCCNCCCN [Compound 1230, N^1-Spermine-L-leucinyl amide] | – | 32 | IC50 with DFMO, result in words (MDA-MB-231 cells): failed to give effective IC50 values |
| NCCCNCCCCNCCCNC(=O)C12CC3CC(CC(C3)C1)C2 [Compound 1235, N^1-spermine 1-adamantylamide] | – | 1140 | – |
| NCCCNCCCCNCCCNC(=O)C(N)Cc1c[nH]c2ccccc12 [Compound 1309, N^1-Spermine-D-tryptophanyl amide] | – | 26 | – |
| NCCCCN [PUT, putrescine, reference compound] | – | – | concentration added to culture media at which growth inhibition due to 1202 and DFMO begins to reverse (MDA-MB-231 cells): greater than 10 μM |
| NCCCNCCCCNCCCN [SPM, spermine, reference compound] | – | – | concentration added to culture media at which growth inhibition due to 1202 and DFMO begins to reverse (MDA-MB-231 cells): 1 µM |
| NCCCCN(CCCN)CCCNC(=O)CCCc1ccc(N(CCCl)CCCl)cc1 [chlorambucil-spermidine conjugate] | – | – | increase in cytotoxicity compared to chlorambucil alone (cancer cells): ≤ 225 fold |
| NCCCCNCCCN [spermidine, reference compound] | – | – | concentration added to culture media at which growth inhibition due to 1202 and DFMO begins to reverse (MDA-MB-231 cells): 1 µM; Km ([1]; MDA cells, read-out: Km for the transport system): 520 nM |
